For experiment [1], the target named is T1, IAV RdRp from A/PR/8/34/H1N1 strain (Influenza A virus, UniProt P03428+P03431). The class given is biochemical, influenza virus A/PR/8/34/H1N1.
Experiment [2] addresses T1, IAV RdRp from A/PR/8/34/H1N1 strain. As to conditions: inhibiting the transcriptional activity of viral polymerase; ref Pagadala [2019]; cited from earlier work.

Like-named read-outs stand apart in the source and are kept apart here.

In experiment [1], “5′-Dimethoxytrityl-2′-tosyl-N2-isobutyryl-guanosine [Compound 7]” registered an IC25 of 250 nM and an IC50 of 680 nM.
`Cc1cn([C@H]2C[C@H](N=[N+]=[N-])[C@@H](CO[P@](=O)(O)O[P@](=O)(O)OP(=O)(O)O)O2)c(=O)[nH]c1=O` [3′-azido-3′-deoxy-thymidine-5′-triphosphate]: the IC50 in experiment [2] was 1120 nM.
Consider `Nc1nc2c(ncn2[C@@H]2O[C@H](COP(=O)(O)OP(=O)(O)OP(=O)(O)O)[C@@H](O)[C@H]2F)c(=O)[nH]1` [Compound 12, 2′-deoxy-2′-fluoroguanosine 5′-triphosphate], for which, in experiment [2], the IC50 was 1120 nM.

One may read the IC25 as the point of the concentration-response curve where the effect stands at 25%. Low values mean an effect from little substance, high ones a need for much substance. The IC50 is the concentration that inhibits the measured activity by half.

(Values after publication PMC7246003 (Medicinal Chemistry Research, 2020).)
